Measured values from PubChem BioAssay (NCI).
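A five-concentration, 48-hour dose response in 96-well plates underlies each endpoint, interpolated linearly between surrounding concentrations. At the TGI there is no net growth.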

How the values were obtained:
Experiment in all cases: growth of human tumour cells (NCI), 48 h
[1] = system: 786-0 renal
[2] = system: A498 renal
[3] = system: A549 NSCLC
[4] = system: ACHN renal
[5] = system: CAKI-1 renal
[6] = system: CCRF-CEM leukemia
[7] = system: COLO 205 colon
[8] = system: DLD-1 colon
[9] = system: DMS 114 small cell lung
[10] = system: DMS 273 small cell lung
[11] = system: HCC-2998 colon
[12] = system: HCT-116 colon
[13] = system: HCT-15 colon
[14] = system: HOP-18 NSCLC
[15] = system: HOP-62 NSCLC
[16] = system: HOP-92 NSCLC
[17] = system: HT29 colon
[18] = system: IGROV1 ovarian
[19] = system: K-562 leukemia
[20] = system: KM12 colon
[21] = system: KM20L2 colon
[22] = system: LOX IMVI melanoma
[23] = system: LXFL 529 NSCLC
[24] = system: M14 melanoma
[25] = system: M19-MEL melanoma
[26] = system: MOLT-4 leukemia
[27] = system: NCI-H226 lung
[28] = system: NCI-H23 lung
[29] = system: NCI-H460 lung
[30] = system: NCI-H522 lung
[31] = system: OVCAR-3 ovarian
[32] = system: OVCAR-4 ovarian
[33] = system: OVCAR-5 ovarian
[34] = system: OVCAR-8 ovarian
[35] = system: RPMI-8226 leukemia
[36] = system: RXF 393 renal
[37] = system: SF-268 CNS
[38] = system: SF-295 CNS
[39] = system: SF-539 CNS
[40] = system: SK-MEL-2 melanoma
[41] = system: SK-MEL-28 melanoma
[42] = system: SK-MEL-5 melanoma
[43] = system: SK-OV-3 ovarian
[44] = system: SN12C renal
[45] = system: SNB-75 CNS
[46] = system: SNB-78 CNS
[47] = system: SR leukemia
[48] = system: SW-620 colon
[49] = system: TK-10 renal
[50] = system: U251 CNS
[51] = system: UACC-257 melanoma
[52] = system: UACC-62 melanoma
[53] = system: UO-31 renal
[54] = system: EKVX NSCLC
[55] = system: MALME-3M melanoma
[56] = system: SNB-19 CNS
[57] = system: XF 498 CNS

Measured: TGI

c1ccc2c(C3NCCc4[nH]cnc43)cccc2c1 (configuration not stated)
not listed: [54] | [55] | [56] | [57]
> 100 µM: all other assays above

CCOC(=O)C(=O)Nc1c(CC)cccc1C(C)C
not listed: [6] | [9] | [14] | [19] | [26] | [30] | [42] | [47]
> 100 µM: all other assays above
